Like-named read-outs stand apart in the source and are kept apart here.
Legend:
[1] = test system: tobacco budworm GABA-gated chloride channel; type: cell-based; details: for Fluorescence: then GABA, HEK a-3 cells, average of three tests
Method: The following solutions were prepared prior to or on the same day the experiment was to be carried out: • Solution A: To about one liter of deionized water was added 8.0 grams of sodium chloride, 0.395 gram of potassium chloride, 0.294 gram of calcium chloride, 0.203 gram of magnesium chloride, 4.5 grams of glucose, and 2.38 grams of [4-(2-hydroxyethyl)-1-piperazineethanesulfonic acid (“HEPES”) (all available from Aldrich Chemical Company, Milwaukee, Wis.). The resulting solution was stirred until dissolution was complete and then the pH adjusted to 7.3 to 7.4 with an aqueous 1 M sodium hydroxide solution. • Solution B: To one vile of the dye (“FLIPR® Membrane Potential Assay Reagent, Component A”) contained in the FLIPR® Membrane Potential Assay Kit was added about 10 ml of Solution A. The resulting mixture was mixed by repeated pippetting until the content of the vile was completely dissolved and used immediately or stored at […] for future use.
The following solution was prepared on the same day the experiment was to be carried out: • Solution C: To solution B was added about 90 mL of Solution A. The resulting mixture was mixed until dissolution was complete. • Solution D: GABA (available from Sigma Chemical Co., St. Louis, Mo.), […], was taken up in 30 ml of Solution A. The resulting solution was mixed until dissolution was completion, yielding a […] GABA solution. • Solution E: To 1.2 ml of Solution D was added 38.8 ml of Solution A. The resulting mixture was mixed by repeated pippetting until dissolution was complete, yielding a 300 μM GABA solution.
On the same day the experiment is to be carried, Solutions A-E are prepared again in the manner described above.
(§1) One day before of the experiment, HEK a-3 cells were seeded into two wells of a poly-D-lysine coated blackwall 96 well microplate with clear bottom at a cell density of about 100,000 cells per well. Upon completion of addition, the cells were incubated at 37° C. in a cell culture incubator for twenty-four hours, for use below.
In carrying out the first step, on the day of the experiment, the 96 well microplate containing the HEK a-3 cells was removed from the incubator and 100 μl of Solution C was added to the two wells of the 96 well microplate. Upon completion of addition, the microplate was allowed to stand at ambient temperature of 3.5 to 4 hours. After this time, the microplate was placed onto the FLIPR^384® Fluorometric Imaging Plate Reader system in which the laser intensity was set at a suitable level to obtain a basal value of approximately 10,000 fluorescence units, fluorescent readings were obtained every one second for the first minute and then every six seconds thereafter, and fluorescence measurements were captured by a cooled CCD camera. After ten seconds from the start of the fluorescence measurements, 25 μl of Solution E was added at a rate of 25 μl/second by the system to one of the two wells of the 96 well microplate. Upon completion of addition, the level of fluorescence of the HEK a-3 cells was determined using the FLIPR^384® Fluorometric Imaging Plate Reader system.
as §1, with “each well” for “two wells”, “bottom (available from Becton, Dickinson and Company, Franklin Lakes, N.J.)” for “bottom”
In carrying out the first step, on the day of the experiment, the 96 well microplate containing the HEK a-3 cells was removed from the incubator and 100 μl of Solution C were added to each well of the 96 well microplate. Upon completion of addition, the microplate was stored at ambient temperature for 3.5 to 4 hours. […]

[2] = test system: tobacco budworm GABA-gated chloride channel; assay: Fluorescence in HEK a-3 cells by the standard protocol of the FLIPR Membrane Potential Assay Kit; type: cell-based; details: 25 μl of 300 μM GABA solution; dye incubated at 37° C. for 0.5 to one hour; FIG. 1
Method: This example illustrates the measurement of fluorescence in HEK a-3 cells in the manner described in the protocol for the FLIPR® Membrane Potential Assay Kit.
The following solutions were prepared prior to or on the same day the experiment was to be carried out: • Solution A: To about one liter of deionized water was added 8.0 grams of sodium chloride, 0.395 gram of potassium chloride, 0.294 gram of calcium chloride, 0.203 gram of magnesium chloride, 4.5 grams of glucose, and 2.38 grams of [4-(2-hydroxyethyl)-1-piperazineethanesulfonic acid (“HEPES”) (all available from Aldrich Chemical Company, Milwaukee, Wis.). […]
In carrying out the first step, on the day of the experiment, the 96 well microplate containing the HEK a-3 cells was removed from the incubator and 100 μl of Solution C was added to the two wells of the 96 well microplate. […] After this time, the microplate was placed onto the FLIPR^384® Fluorometric Imaging Plate Reader system in which the laser intensity was set at a suitable level to obtain a basal value of approximately 10,000 fluorescence units, fluorescent readings were obtained every one second for the first minute and then every six seconds thereafter, and fluorescence measurements were captured by a cooled CCD camera. […]

[3] = 10 μM compound, [1 − (fluorescence of test compound/fluorescence of control)] × 100
[4] = 0.003 μM compound, relative to DMSO control
[5] = 0.01 μM compound, relative to DMSO control
[6] = 0.03 μM compound, relative to DMSO control
[7] = 0.1 μM compound, relative to DMSO control
[8] = 0.3 μM compound, relative to DMSO control
[9] = 1 μM compound, relative to DMSO control
[10] = 3 μM compound, relative to DMSO control

CN1CCc2cc3c(cc2[C@H]1[C@@H]1OC(=O)c2c1ccc1c2OCO1)OCO3 [Bicuculine, bicuculine]
Fluorescence ([1]; 10 μM compound): 11543 | % Inhibition [1, 3]: 5%

O=S1OCC2C(CO1)C1(Cl)C(Cl)=C(Cl)C2(Cl)C1(Cl)Cl (stereo not drawn) [Endosulfan, endosulfan]
Fluorescence ([1]; 0.003 μM compound): 14343 | % Inhibition [1, 4]: −3% | Fluorescence ([1]; 0.01 μM compound): 15198 | % Inhibition [1, 5]: −9% | Fluorescence ([1]; 0.03 μM compound): 11074 | % Inhibition [1, 6]: 20% | Fluorescence ([1]; 0.1 μM compound): 7098 | % Inhibition [1, 7]: 48% | Fluorescence ([1]; 0.3 μM compound): 4426 | % Inhibition [1, 8]: 68% | Fluorescence ([1]; 1 μM compound): 1903 | % Inhibition [1, 9]: 86% | Fluorescence ([1]; 3 μM compound): 1615 | % Inhibition [1, 10]: 88% | Fluorescence ([1]; 10 μM compound): 993 | % Inhibition [1, 3]: 93%

NCCCC(=O)O [GABA, Gamma amino-n-butyric acid]
change in fluorescence after addition of GABA ([1]; 25 μl of 300 μM GABA solution, dye at ambient temperature 3.5 to 4 hours, FIG. 2): an increase in fluorescence | change in fluorescence after addition of GABA [2]: no change in fluorescence was observed

N#Cc1nn(-c2c(Cl)cc(C(F)(F)F)cc2Cl)c(N)c1[S+]([O-])C(F)(F)F (stereo not drawn) [Fipronil, fipronil]
Fluorescence ([1]; 0.003 μM compound): 11275 | % Inhibition [1, 4]: 10% | Fluorescence ([1]; 0.01 μM compound): 8328 | % Inhibition [1, 5]: 43% | Fluorescence ([1]; 0.03 μM compound): 6441 | % Inhibition [1, 6]: 48% | Fluorescence ([1]; 0.1 μM compound): 4469 | % Inhibition [1, 7]: 64% | Fluorescence ([1]; 0.3 μM compound): 2990 | % Inhibition [1, 8]: 76% | Fluorescence ([1]; 1 μM compound): 1790 | % Inhibition [1, 9]: 86% | Fluorescence ([1]; 3 μM compound): 1031 | % Inhibition [1, 10]: 92% | Fluorescence ([1]; 10 μM compound): 628 | % Inhibition [1, 3]: 95%

ClC1=C(Cl)[C@]2(Cl)[C@@H]3[C@@H]4C[C@@H]([C@H]5O[C@@H]45)[C@@H]3[C@@]1(Cl)C2(Cl)Cl [Dieldrin, dieldrin]
Fluorescence ([1]; 0.003 μM compound): 13284 | % Inhibition [1, 4]: −1% | Fluorescence ([1]; 0.01 μM compound): 12339 | % Inhibition [1, 5]: 5% | Fluorescence ([1]; 0.03 μM compound): 11492 | % Inhibition [1, 6]: 12% | Fluorescence ([1]; 0.1 μM compound): 9924 | % Inhibition [1, 7]: 34% | Fluorescence ([1]; 0.3 μM compound): 7279 | % Inhibition [1, 8]: 44% | Fluorescence ([1]; 1 μM compound): 4184 | % Inhibition [1, 9]: 68% | Fluorescence ([1]; 3 μM compound): 900 | % Inhibition [1, 10]: 93% | Fluorescence ([1]; 10 μM compound): 67 | % Inhibition [1, 3]: 100%

CCCC(C)C1(CC)C(=O)NC(=O)NC1=O (stereo not drawn) [Pentabarbitol]
Fluorescence ([1]; 10 μM compound): 11575 | % Inhibition [1, 3]: 5%

From patent US20060014219A1 (priority 2002, published 2006)
